In US20230303613A1, “3′3′ CYCLIC DINUCLEOTIDES WITH AN ALKENYLENE” (Institute of Organic Chemistry and Biochemistry AS CR, v.v.i, priority 2020, published 2023):
pEC50: −log10 of the molar value. Where two headings read alike, the source gives them in different places.

Assays:
WT STING = WT STING (Homo sapiens, UniProt Q86WV6, H232R); assay: 293T WT STING standard reporter assay; format: cell-based; details: 293T wtSTING-FL cells; 7 hours with compound, no digitonin; ISRE firefly luciferase reporter
Chain of WT STING (Q86WV6 whole entry H232R): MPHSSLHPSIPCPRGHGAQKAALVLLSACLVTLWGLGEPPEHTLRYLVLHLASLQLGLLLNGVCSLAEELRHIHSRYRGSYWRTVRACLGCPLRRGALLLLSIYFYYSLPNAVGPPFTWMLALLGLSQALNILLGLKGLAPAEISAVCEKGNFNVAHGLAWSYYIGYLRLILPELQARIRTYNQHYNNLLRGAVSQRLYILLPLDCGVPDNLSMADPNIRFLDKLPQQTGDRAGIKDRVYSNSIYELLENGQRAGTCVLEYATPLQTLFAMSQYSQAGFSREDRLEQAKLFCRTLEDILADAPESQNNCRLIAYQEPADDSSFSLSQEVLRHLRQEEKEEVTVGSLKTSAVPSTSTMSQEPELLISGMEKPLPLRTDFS
Text: Two complementary oligonucleotides of the sequence […] […] […] […] […] The oligonucleotides were mixed in equal molar amounts, hybridized, and cleaved by restriction endonucleases HindIII (cat. #. R0104S, NEB, Ipswich, USA) and BglII (cat. # R0144S, NEB, Ipswich, USA). Ultimately, they were ligated into plasmid pGL4.27 (cat. # E6651, Promega, Madison, USA) linearized with the same enzymes. As result the sequence with four ISRE sites was placed upstream of the minimum promoter of firefly luciferase reporter gene.
After 5 minutes incubation at room temperature (RT), 250 µL of the mixture was added dropwise to the cells in one well. Cells were incubated 36 hours at 37° C. with 5% CO2, and then detached with 0.05% Trypsin and 0.22 g/L EDTA (both cat. # L0941, Biowest, Riverside, USA).
Transfected cells were seeded onto poly-D-lysine coated six well plates at density 50,000 cells per 1 cm^2 in DMEM medium with high glucose containing 10% heat inactivated FBS, 30 µg/mL blasticidin (cat. # ant-bl-05, InvivoGen, San Diego, USA), 0.06 mg/ml Penicillin G and 0.1 mg/ml Streptomycin Sulfate (both cat. #. L0018, Biowest, Riverside, USA). The medium was replenished every 3 - 4 days until visible colonies of cells resistant to blasticidin were formed.
Blasticidin resistant cells stably expressing WT STING were further transfected with […] plasmid following the same procedure as described above. […] Homogeneous culture of stably double transfected cells was prepared by limiting dilution of cells in 96 well plates and wells with cells were selected that originated from a single cell.
The medium was removed next day and three-fold serial dilutions of compounds in 100 µl medium were added to the cells. The plates with cells were incubated for 7 hours at 37° C. with 5% CO2. After 50 µl of the medium was removed, 30 µl of ONE-Glo^Tm Luciferase Assay System reagent (cat. # E6120, Promega, Madison, USA) was added to each well and luminescence was read on Synergy H1 (Biotek, Winooski, USA).

[1] = test system: peripheral blood mononuclear cell (PBMC); assay: Peripheral blood mononuclear cell assay; format: cell-based; details: 1h with compound, washed, 15 hour incubation
Description: Selected compounds were tested in an in vitro peripheral blood mononuclear cell (PBMC) assay. Freshly isolated PBMCs were seeded into U-shaped shaped 96-well plates at desity 500,000 cells per well in 50 µl of RPMI 1640 medium supplemented with 10% heat inactivated FBS. Serially dilluted tested compounds were added to wells in 50 µl of cultivation medium and cell were incubated with compounds for 1h at 37° C. with 5% CO2. Plates with cells were then spun 500 g for 5 minutes and medium was removed. Cells were washed twice with the cell culture medium by the use of centrifugation and gently resuspended in 100 µl medium without compounds. After 15 hour incubation at 37° C. with 5% CO2, the cell culture medium was collected and the levels of interferon-alpha (INF-α), interferon-gamma (INF-γ) and tumor necrosis factor-alpha (TNF-α) were determined with ProcartaPlex Assays (ThermoFisher, Waltham, USA) and MAGPIX System (Merck KGaA, Darmstadt, Germany).

[2] = PBMC, IFN-α level in medium, read-out: PBMC EC50 IFN-α
[3] = PBMC, IFN-γ level in medium, read-out: PBMC EC50 IFN-γ
[4] = PBMC, TNF-α level in medium, read-out: PBMC EC50 TNF-α
[5] = IFN-α level in medium, read-out: PBMC EC50 IFN-α
[6] = TNF-α level in medium, read-out: PBMC EC50 TNF-α

Row | Compound | pEC50 (WT STING) | other results
1 | CC(C)(C)C(=O)OCOP1(=O)/C=C/[C@H]2O[C@@H](n3cnc4c(N)ncnc43)[C@H](F)[C@@H]2OP(=O)(OCOC(=O)C(C)(C)C)OC[C@H]2O[C@@H](n3cnc4c(N)ncnc43)[C@H](F)[C@@H]2O1 (single isomer, unassigned) [Compound 80a] | 7.08 | –
2 | CC(C)(C)C(=O)OCOP1(=O)/C=C/[C@H]2O[C@@H](n3cnc4c(N)ncnc43)[C@H](F)[C@@H]2OP(=O)(OCOC(=O)C(C)(C)C)OC[C@H]2O[C@@H](n3cnc4c(N)ncnc43)[C@H](F)[C@@H]2O1 (single isomer, unassigned) [Compound 80b] | 7.66 | –
3 | CC(C)(C)C(=O)OCOP1(=O)/C=C/[C@H]2O[C@@H](n3cnc4c(N)ncnc43)[C@H](F)[C@@H]2OP(=O)(OCOC(=O)C(C)(C)C)OC[C@H]2O[C@@H](n3cnc4c(N)ncnc43)[C@H](F)[C@@H]2O1 (single isomer, unassigned) [Compound 80c] | 7.92 | pEC50 [1, 2]: 7.00; pEC50 [1, 3]: 6.74; pEC50 [1, 4]: 7.00
4 | CC1(C(=O)OCOP2(=O)/C=C/[C@H]3O[C@@H](n4cnc5c(N)ncnc54)[C@H](F)[C@@H]3OP(=O)(OCOC(=O)C3(C)CCCCC3)OC[C@H]3O[C@@H](n4cnc5c(N)ncnc54)[C@H](F)[C@@H]3O2)CCCCC1 (single isomer, unassigned) [Compound 82a] | 6.70 | –
5 | CC1(C(=O)OCOP2(=O)/C=C/[C@H]3O[C@@H](n4cnc5c(N)ncnc54)[C@H](F)[C@@H]3OP(=O)(OCOC(=O)C3(C)CCCCC3)OC[C@H]3O[C@@H](n4cnc5c(N)ncnc54)[C@H](F)[C@@H]3O2)CCCCC1 (single isomer, unassigned) [Compound 82b] | 7.10 | –
6 | CC1(C(=O)OCOP2(=O)/C=C/[C@H]3O[C@@H](n4cnc5c(N)ncnc54)[C@H](F)[C@@H]3OP(=O)(OCOC(=O)C3(C)CCCCC3)OC[C@H]3O[C@@H](n4cnc5c(N)ncnc54)[C@H](F)[C@@H]3O2)CCCCC1 (single isomer, unassigned) [Compound 82c] | 7.82 | pEC50 [1, 2]: 7.00; pEC50 [1, 3]: 7.15; pEC50 [1, 4]: 7.22
7 | CCCCCCCC(=O)OCOP1(=O)/C=C/[C@H]2O[C@@H](n3cnc4c(N)ncnc43)[C@H](F)[C@@H]2OP(=O)(OCOC(=O)CCCCCCC)OC[C@H]2O[C@@H](n3cnc4c(N)ncnc43)[C@H](F)[C@@H]2O1 (single isomer, unassigned) [Compound 83a] | 7.64 | –
8 | CCCCCCCC(=O)OCOP1(=O)/C=C/[C@H]2O[C@@H](n3cnc4c(N)ncnc43)[C@H](F)[C@@H]2OP(=O)(OCOC(=O)CCCCCCC)OC[C@H]2O[C@@H](n3cnc4c(N)ncnc43)[C@H](F)[C@@H]2O1 (single isomer, unassigned) [Compound 83b] | 8.52 | –
9 | CCCCCCCC(=O)OCOP1(=O)/C=C/[C@H]2O[C@@H](n3cnc4c(N)ncnc43)[C@H](F)[C@@H]2OP(=O)(OCOC(=O)CCCCCCC)OC[C@H]2O[C@@H](n3cnc4c(N)ncnc43)[C@H](F)[C@@H]2O1 (single isomer, unassigned) [Compound 83c] | 8.52 | –
10 | CCC(C)(C)C(=O)OCOP1(=O)/C=C/[C@H]2O[C@@H](n3cnc4c(N)ncnc43)[C@H](F)[C@@H]2OP(=O)(OCOC(=O)C(C)(C)CC)OC[C@H]2O[C@@H](n3cnc4c(N)ncnc43)[C@H](F)[C@@H]2O1 (single isomer, unassigned) [Compound 84a] | 6.82 | –
11 | CCC(C)(C)C(=O)OCOP1(=O)/C=C/[C@H]2O[C@@H](n3cnc4c(N)ncnc43)[C@H](F)[C@@H]2OP(=O)(OCOC(=O)C(C)(C)CC)OC[C@H]2O[C@@H](n3cnc4c(N)ncnc43)[C@H](F)[C@@H]2O1 (single isomer, unassigned) [Compound 84b] | 8.00 | pEC50 [1, 5]: 7.10; pEC50 [1, 6]: 7.15; pEC50 [1, 3]: 7.22
12 | CCC(C)(C)C(=O)OCOP1(=O)/C=C/[C@H]2O[C@@H](n3cnc4c(N)ncnc43)[C@H](F)[C@@H]2OP(=O)(OCOC(=O)C(C)(C)CC)OC[C@H]2O[C@@H](n3cnc4c(N)ncnc43)[C@H](F)[C@@H]2O1 (single isomer, unassigned) [Compound 84c] | 8.15 | pEC50 [1, 5]: 7.52; pEC50 [1, 6]: 8.00
13 | CCCCCCCCCCCC(=O)OCOP1(=O)/C=C/[C@H]2O[C@@H](n3cnc4c(N)ncnc43)[C@H](F)[C@@H]2OP(=O)(OCOC(=O)CCCCCCCCCCC)OC[C@H]2O[C@@H](n3cnc4c(N)ncnc43)[C@H](F)[C@@H]2O1 (single isomer, unassigned) [Compound 85a] | 9.40 | pEC50 [1, 2]: 7.70; pEC50 [1, 3]: 8.00; pEC50 [1, 4]: 7.70
14 | CCCCCCCCCCCC(=O)OCOP1(=O)/C=C/[C@H]2O[C@@H](n3cnc4c(N)ncnc43)[C@H](F)[C@@H]2OP(=O)(OCOC(=O)CCCCCCCCCCC)OC[C@H]2O[C@@H](n3cnc4c(N)ncnc43)[C@H](F)[C@@H]2O1 (single isomer, unassigned) [Compound 85b] | 8.52 | –
15 | CC(C)(C)C(=O)OCOP1(=O)/C=C/[C@H]2O[C@@H](n3cnc4c(N)ncnc43)C[C@@H]2OP(=O)(OCOC(=O)C(C)(C)C)OC[C@H]2O[C@@H](n3cnc4c(N)ncnc43)[C@H](F)[C@@H]2O1 (single isomer, unassigned) [Compound 87a] | 4.92 | –
16 | CC(C)(C)C(=O)OCOP1(=O)/C=C/[C@H]2O[C@@H](n3cnc4c(N)ncnc43)C[C@@H]2OP(=O)(OCOC(=O)C(C)(C)C)OC[C@H]2O[C@@H](n3cnc4c(N)ncnc43)[C@H](F)[C@@H]2O1 (single isomer, unassigned) [Compound 87b] | 6.17 | –
17 | CC(C)(C)C(=O)OCOP1(=O)/C=C/[C@H]2O[C@@H](n3cnc4c(N)ncnc43)C[C@@H]2OP(=O)(OCOC(=O)C(C)(C)C)OC[C@H]2O[C@@H](n3cnc4c(N)ncnc43)[C@H](F)[C@@H]2O1 (single isomer, unassigned) [Compound 87c] | 6.59 | –
18 | CC(C)OC(=O)OCOP1(=O)/C=C/[C@H]2O[C@@H](n3cnc4c(N)ncnc43)[C@H](F)[C@@H]2OP(=O)(OCOC(=O)OC(C)C)OC[C@H]2O[C@@H](n3cnc4c(N)ncnc43)[C@H](F)[C@@H]2O1 (stereo partly drawn) [Compound 81a, {[(1R,6R,8R,9R,10R,13E,15R,17R,18R)-8,17-bis(6-amino-9H-purin-9-yl)-9,18-difluoro-3,12-dioxo-3-({[(propan-2-yloxy)carbonyl]oxy}methoxy)-2,4,7,11,16-pentaoxa-3λ^5,12λ^5-diphosphatricyclo[13.3.0.0^6,^10]octadec-13-en-12-yl]oxy}methyl propan-2-yl carbonate] | 5.02 | –
19 | CC(C)(C)C(=O)OCOP1(=O)/C=C/[C@H]2O[C@@H](n3cnc4c(N)ncnc43)[C@H](F)[C@@H]2OP(=O)(OCOC(=O)C(C)(C)C)OC[C@H]2O[C@@H](n3cnc4c(N)ncnc43)C[C@@H]2O1 (stereo partly drawn) [Compound 86, {[(1R,6R,8R,10S,13E,15R,17R,18R)-8,17-bis(6-amino-9H-purin-9-yl)-3-{[(2,2-dimethylpropanoyl)oxy]methoxy}-18-fluoro-3,12-dioxo-2,4,7,11,16-pentaoxa-3λ^5,12λ^5-diphosphatricyclo[13.3.0.0^6,^10]octadec-13-en-12-yl]oxy}methyl 2,2-dimethylpropanoate] | 8.00 | pEC50 [1, 2]: 6.22; pEC50 [1, 3]: 5.80; pEC50 [1, 4]: 6.10
20 | {[(1R,6R,8R,9R,10R,13E,15R,17R,18R)-8,17-bis(6-amino-9H-purin-9-yl)-9,18-difluoro-3,12-dioxo-3-({[(propan-2-yloxy)carbonyl]oxy}methoxy)-2,4,7,11,16-pentaoxa-3λ^5,12λ^5- diphosphatricyclo[13.3.0.0^6,^10]octadec-13-en-12-yl]oxy}methyl propan-2-yl carbonate [Compound 81b] | 5.92 | –
